The record followed here is patent US9090609B2, “Benzyl-substituted carbamates and use thereof” (BAYER INTELLECTUAL PROPERTY GMBH, priority 2010, dated 2015).

One experiment concerns aorta rings. As to the kind of experiment: Vasorelaxant action in vitro (phenylephrine-contracted aorta rings). As to conditions: Oryctolagus cuniculus; concentration needed to reduce the phenylephrine contraction of rabbit aorta rings by 50%. The procedure:
B-1. Vasorelaxant Action In Vitro
Rabbits are stunned by a blow to the neck and exsanguinated. The aorta is removed, freed from adhering tissue and divided into rings of a width of 1.5 mm. The rings are placed individually under an initial tension in 5 ml organ baths with Krebs-Henseleit solution which is at 37° C., is gassed with carbogen and has the following composition (in each case mM): sodium chloride 119; potassium chloride: 4.8; calcium chloride dihydrate: 1; magnesium sulfate heptahydrate: 1.4; potassium dihydrogenphosphate: 1.2; sodium bicarbonate: 25; glucose: 10. The contractile force is determined with Statham UC2 cells, amplified and digitalized using A/D transducers (DAS 1802 HC, Keithley Instruments Munich), and recorded in parallel on linear recorders. To obtain a contraction, phenylephrine is added to the bath cumulatively in increasing concentration. After several control cycles, the substance to be investigated is added in each further run in increasing dosage in each case, and the height of the contraction achieved is compared with the height of the contraction reached in the last preceding run. This is used to calculate the concentration needed to reduce the magnitude of the control value by 50% (IC50 value). The standard administration volume is 5 μl; the DMSO content in the bath solution corresponds to 0.1%.

For experiment [1], the target named is T1, recombinant guanylate cyclase reporter cell line (Rattus norvegicus, UniProt P19686+P20595).
T1 construct: expressed in transfected cells; host or cells: recombinant reporter cell line
T1 sequence (P20595 1-619): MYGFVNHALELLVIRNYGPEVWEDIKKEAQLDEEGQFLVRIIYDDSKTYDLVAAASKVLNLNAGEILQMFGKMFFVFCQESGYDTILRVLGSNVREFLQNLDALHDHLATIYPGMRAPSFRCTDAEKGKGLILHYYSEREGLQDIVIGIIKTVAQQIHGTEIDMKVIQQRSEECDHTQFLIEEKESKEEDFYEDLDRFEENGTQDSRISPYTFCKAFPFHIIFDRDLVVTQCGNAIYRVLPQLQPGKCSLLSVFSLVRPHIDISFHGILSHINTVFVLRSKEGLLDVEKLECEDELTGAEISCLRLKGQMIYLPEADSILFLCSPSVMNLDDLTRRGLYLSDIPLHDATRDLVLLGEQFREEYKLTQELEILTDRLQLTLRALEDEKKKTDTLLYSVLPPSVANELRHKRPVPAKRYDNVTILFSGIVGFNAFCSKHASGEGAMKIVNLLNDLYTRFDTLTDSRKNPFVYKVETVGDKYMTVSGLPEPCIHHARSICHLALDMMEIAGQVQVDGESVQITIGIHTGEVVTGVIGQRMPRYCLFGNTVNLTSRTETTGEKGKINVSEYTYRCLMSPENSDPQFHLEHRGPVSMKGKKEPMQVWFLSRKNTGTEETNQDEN
T1 sequence (P19686 1-690): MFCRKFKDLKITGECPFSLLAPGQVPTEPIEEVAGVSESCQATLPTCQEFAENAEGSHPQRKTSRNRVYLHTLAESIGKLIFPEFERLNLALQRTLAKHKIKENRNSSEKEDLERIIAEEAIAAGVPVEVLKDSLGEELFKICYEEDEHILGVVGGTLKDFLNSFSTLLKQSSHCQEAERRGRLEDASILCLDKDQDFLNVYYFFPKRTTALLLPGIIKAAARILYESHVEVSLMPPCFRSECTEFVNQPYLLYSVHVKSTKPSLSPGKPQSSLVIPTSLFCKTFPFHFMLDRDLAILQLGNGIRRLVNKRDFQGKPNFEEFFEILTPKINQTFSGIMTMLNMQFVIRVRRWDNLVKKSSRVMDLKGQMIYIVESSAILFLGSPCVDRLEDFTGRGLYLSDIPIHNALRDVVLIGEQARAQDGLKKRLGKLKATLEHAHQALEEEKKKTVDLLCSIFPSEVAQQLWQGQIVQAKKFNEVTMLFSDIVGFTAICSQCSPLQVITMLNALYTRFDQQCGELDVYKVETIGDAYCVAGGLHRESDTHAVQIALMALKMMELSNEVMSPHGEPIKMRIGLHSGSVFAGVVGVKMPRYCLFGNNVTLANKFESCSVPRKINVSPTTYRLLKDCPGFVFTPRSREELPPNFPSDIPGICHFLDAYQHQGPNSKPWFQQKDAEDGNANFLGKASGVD
As to the kind of experiment: Effect on a recombinant guanylate cyclase reporter cell line. Type of experiment: cell-based. How it is done:
B-2. Effect on a Recombinant Guanylate Cyclase Reporter Cell Line
The cellular activity of the compounds according to the invention is determined using a recombinant guanylate cyclase reporter cell line, as described in F. Wunder et al., Anal. Biochem. 339, 104-112 (2005).

The term IC50 denotes the concentration at which inhibition is half-maximal. Higher therefore signals weaker potency. Consider `COC(=O)N(Cc1ccccc1)c1cnc(-n2nc(Cc3ccccc3F)c3ncccc32)nc1N` [Example 2, Methyl {4-amino-2-[3-(2-fluorobenzyl)-1H-pyrazolo[4,3-b]pyridin−1-yl]pyrimidin-5-yl}benzylcarbamate], for which half-maximal inhibition with aorta rings (IC50) required 0.705 nM. Also, the “MEC (minimum effective concentration)” value in experiment [1] is 0.3 µM.

Regarding `COC(=O)N(Cc1ccccc1F)c1c(N)nc(-n2nc(Cc3ccccc3F)c3ncccc32)nc1N` [Example 3, Methyl {4,6-diamino-2-[3-(2-fluorobenzyl)-1H-pyrazolo[4,3-b]pyridin-1-yl]pyrimidin-5-yl}(2-fluorobenzyl)carbamate], in the experiment on aorta rings, the IC50 came to 0.399 nM. Moreover, the “MEC (minimum effective concentration)” value in experiment [1] worked out at 0.1 µM.

Regarding `COC(=O)N(Cc1ccc(F)cc1)c1c(N)nc(-n2nc(Cc3ccccc3F)c3ncccc32)nc1N` [Example 4, Methyl {4,6-diamino-2-[3-(2-fluorobenzyl)-1H-pyrazolo[4,3-b]pyridin-1-yl]pyrimidin-5-yl}(4-fluorobenzyl)carbamate], the IC50 with aorta rings came out at 0.359 nM. In addition, the “MEC (minimum effective concentration)” value in experiment [1] worked out at 0.1 µM.

For the compound `COC(=O)N(Cc1ccccc1)c1c(N)nc(-n2nc(Cc3ccccc3F)c3ncccc32)nc1N` [Example 5, Methyl benzyl{4,6-diamino-2-[3-(2-fluorobenzyl)-1H-pyrazolo[4,3-b]pyridin-1-yl]pyrimidin-5-yl}carbamate], the IC50 in the experiment with aorta rings amounted to 0.185 nM. In addition, the “MEC (minimum effective concentration)” value in experiment [1] came out at 0.1 µM.

As for `CC(C)OC(=O)N(Cc1ccccc1)c1c(N)nc(-n2nc(Cc3ccccc3F)c3ncc(F)cc32)nc1N` [Example 6, Isopropyl benzyl{4,6-diamino-2-[6-fluoro-3-(2-fluorobenzyl)-1H-pyrazolo[4,3-b]pyridin-1-yl]pyrimidin-5-yl}carbamate], in the experiment on aorta rings, the IC50 was 0.745 nM. Besides, the “MEC (minimum effective concentration)” value in experiment [1] amounted to 0.1 µM.

In the experiment with aorta rings, `COC(=O)N(Cc1ccccc1)c1c(N)nc(-n2nc(Cc3ccccc3F)c3ncc(F)cc32)nc1N` [Example 8, Methyl benzyl{4,6-diamino-2-[6-fluoro-3-(2-fluorobenzyl)-1H-pyrazolo[4,3-b]pyridin-1-yl]pyrimidin-5-yl}carbamate] registered an IC50 of 0.154 nM.
